Molecules are shown by their SMILES. Bounds are passed on as bounds.

One may read the IC50 as the point on the concentration scale where inhibition reaches its midpoint. A high value points to weaker potency. What is called chromatographic logD is a lipophilicity value derived from retention on a column. A low value points to lower lipophilicity. By melting point is commonly meant the temperature of the solid-liquid transition.

Data set [1] concerns the target T1, ovine COX-1 (Ovis aries, UniProt P05979).
T1 construct: purchased Cayman Chemical 700100
T1 sequence (P05979 25-600): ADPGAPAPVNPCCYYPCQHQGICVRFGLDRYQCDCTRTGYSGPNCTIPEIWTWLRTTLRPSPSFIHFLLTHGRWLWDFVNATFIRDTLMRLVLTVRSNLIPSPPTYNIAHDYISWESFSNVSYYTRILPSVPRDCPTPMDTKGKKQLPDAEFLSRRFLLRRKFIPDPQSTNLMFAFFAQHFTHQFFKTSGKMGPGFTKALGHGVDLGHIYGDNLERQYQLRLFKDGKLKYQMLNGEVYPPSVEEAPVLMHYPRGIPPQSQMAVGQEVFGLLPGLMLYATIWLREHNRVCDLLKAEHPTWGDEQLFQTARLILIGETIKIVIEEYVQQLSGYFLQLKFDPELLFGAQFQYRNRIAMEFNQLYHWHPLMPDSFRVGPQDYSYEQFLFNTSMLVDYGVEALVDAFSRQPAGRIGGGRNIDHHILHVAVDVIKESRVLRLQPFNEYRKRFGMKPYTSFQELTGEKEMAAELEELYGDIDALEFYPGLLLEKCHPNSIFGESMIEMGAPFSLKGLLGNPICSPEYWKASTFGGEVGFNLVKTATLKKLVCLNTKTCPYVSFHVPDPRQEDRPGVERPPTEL
The data set is described as follows: COX Fluorescent Inhibitor Screening Assay Kit (Cayman 700100), COX-1. The data set is classed as biochemical. Particulars: values marked ** : compounds were screened at a concentration of 100 µM.

The target of data set [2] is T2, human COX-2 (Homo sapiens, UniProt P35354).
T2 construct: purchased Cayman Chemical 700100
T2 sequence (P35354 18-604): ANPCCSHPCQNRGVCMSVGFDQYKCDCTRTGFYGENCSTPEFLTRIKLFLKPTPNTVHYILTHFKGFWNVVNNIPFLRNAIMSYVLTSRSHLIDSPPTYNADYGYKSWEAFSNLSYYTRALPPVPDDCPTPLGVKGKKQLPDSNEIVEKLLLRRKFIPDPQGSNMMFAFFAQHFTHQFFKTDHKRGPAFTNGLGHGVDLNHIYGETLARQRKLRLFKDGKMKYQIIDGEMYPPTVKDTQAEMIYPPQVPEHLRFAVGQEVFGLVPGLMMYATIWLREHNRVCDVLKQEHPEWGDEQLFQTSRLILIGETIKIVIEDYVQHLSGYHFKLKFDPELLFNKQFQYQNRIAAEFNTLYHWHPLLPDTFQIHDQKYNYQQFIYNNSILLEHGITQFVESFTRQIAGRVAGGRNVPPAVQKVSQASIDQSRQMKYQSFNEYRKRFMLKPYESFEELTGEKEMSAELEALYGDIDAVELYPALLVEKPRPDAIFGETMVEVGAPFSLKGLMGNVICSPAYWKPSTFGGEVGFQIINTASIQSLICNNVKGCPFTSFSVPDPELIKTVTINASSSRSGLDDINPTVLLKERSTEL
The data set is described as follows: COX Fluorescent Inhibitor Screening Assay Kit (Cayman 700100), COX-2. Type of data set: biochemical. The following applies: for SI (selectivity index): SI = IC50 (COX-1)/IC50 (COX-2); for IC50: human COX-2, values marked ** : compounds were screened at a concentration of 100 µM.

Data set [3] is described as follows: Lipophilicity, logD7.4 by HPLC method (Donovan and Pescatore). The data set is classed as physicochemical. Particulars: HPLC column ODP-50 4B (Shodex Asahipak 50 × 4.6 mm); pH 7.4, HPLC system 2, MeOH/PBS gradient. As for the experimental part:
The lipophilicity of all synthesized compounds was determined as logD7.4HPLC value (Table 1) using an HPLC method originally described by Donovan and Pescatore.
Column chromatography was performed using silica gel (mesh size 40–63 µm). Thin-layer chromatography (TLC) was performed on silica gel F-254 aluminum plates and visualized using UV (254 nm/366 nm). Analytical HPLC analysis was carried out with the following systems: (system 1) Agilent 1200 HPLC (Santa Clara, CA, USA; pump G1311A, autosampler G1329A, column oven G1316A, degasser G1322A, UV detector G1315D, γ detector Gabi Star (Raytest), Luna C18 column (Phenomenex, 250 × 4.6 mm), flow rate = 1 mL/min, isocratic eluent (MeCN/0.1% TFA in H2O 70/30 (v/v)); (system 2) Agilent 1100 HPLC (Santa Clara, CA, USA; binary pump G1312A, autosampler G1313A, column oven G1316A, degasser G1322A, UV detector G1314A, γ detector Gabi Star (Raytest, Straubenhardt, Germany); column ODP-50 4B (Shodex Asahipak 50 × 4.6 mm); eluent: MeOH/PBS (10 mM, pH 7.4) gradient t0 min 30/70 - t25 min 95/5 - t27 min 95/5 - t28 min 30/70 - t40 min 30/70, flow rate = 0.6 mL/min; (system 3) waters UPLC I-Class (Milford, MA, USA; binary gradient pump BSM, autosampler FTN, column manager CM, and diode array detector PDAeλ coupled to Waters Xevo TQ-S), column Aquity UPLC® BEH C18 column (waters, 100 × 2.1 mm, 1.7 µm, 130 Å), eluent: (A): 0.1% acetic acid in MeCN/MeOH 1/1/(B): 0.1% acetic acid in H2O; flow rate 0.4 mL/min), gradient: t0 min 45/55 - t0.5 min 45/55 - t5.5 min 95/5 - t7.0 min 95/5 - t8.0 min 45/55 – t8.5 min 45/55; (system 4) column (Kinetex C-18 (Phenomenex 50 × 2.1 mm, 1.7 µm, 100 Å), Shimadzu Nexera X2 UHPLC system (Kyoto, Japan; degasser DGU-20A3R and DGU-20A5R, pump LC-30AD, autosampler SIL-30AC, column oven CTO-20AC with two column switching valves FCV-14AH, diode array detector SPD-M30A, γ detector Gabi Star (Raytest, Straubenhardt, Germany), communication bus module CBM-20A), eluent: (A): MeCN, (B): 0.1% trifluoroacetic acid in H2O; flow rate 0.5 mL/min), gradient: t0 min 25/75 - t0.3 min 25/75 - t4.0 min 75/25 - t4.5 min 95/5 - t5.5 min 95/5 - t6.0 min 25/75 – t7.5 min 25/75. The products were monitored by an UV detector at 254 nm and purity of all compounds exceeded 95% as determined by analytical HPLC analysis (system 1 or system 3), unless otherwise stated. Semi-preparative HPLC was performed using the following system: column (C-18 Jupiter Proteo (Phenomenex 250 × 21.1 mm, 4 µm, 90 Å), Shimadzu prominence modular HPLC system (Kyoto, Japan; degasser DGU-20A5R, 2× pump LC-20AR, autosampler SIL-20AC HT, column oven CTO-20AC with column switching valve, diode array detector SPD-M20A, fluorescence detector RF-20A, and fraction collector FRC-10A, communication bus module CBM-20A), isocratic eluent 0.1% TFA in MeCN/0.1% TFA in H2O 70/30, flow rate = 10 mL/min.
The logD7.4HPLC value was determined as previously reported by us utilizing an HPLC method originally described by Donovan and Pescatore[18]. […]

As for `NS(=O)(=O)c1ccc(-c2c(-c3ccccc3)c3cccc4c3n2CC4)cc1` [1a, 5-Phenyl-4-[4-(sulfamoyl)phenyl]-1,2-dihydropyrrolo[3,2,1-hi]indole], the IC50 in data set [1] amounted to 38 µM. In addition, in data set [2], the “SI (selectivity index)” value was 355 and the half-inhibitory concentration (IC50) is 0.107 µM. The molecule further showed a chromatographic logD in data set [3] of 4.44.
For `Cc1ccc(-c2c(-c3ccc(S(N)(=O)=O)cc3)n3c4c(cccc24)CC3)cc1` [1b, 4-[4-(Sulfamoyl)phenyl]-5-(p-tolyl)-1,2-dihydropyrrolo[3,2,1-hi]indole], the IC50 in data set [1] was found to be 59.9 µM. Besides, in data set [2], the “SI (selectivity index)” value stood at 237 and the IC50 was determined as 0.253 µM. Also, the chromatographic logD in data set [3] was found to be 4.56.
On the same counts, the results for `NS(=O)(=O)c1ccc(-c2c(-c3ccc(Cl)cc3)c3cccc4c3n2CC4)cc1` [1c, 5-(4-Chlorophenyl)-4-[4-(sulfamoyl)phenyl]-1,2-dihydropyrrolo[3,2,1-hi]indole] are 15.3 µM, 144, 0.106 µM and 4.9.
The molecule `NS(=O)(=O)c1ccc(-c2c(-c3ccc(F)cc3)c3cccc4c3n2CC4)cc1` [1d, 5-(4-Fluorophenyl)-4-[4-(sulfamoyl)phenyl]-1,2-dihydropyrrolo[3,2,1-hi]indole] had an IC50 in data set [1] of 7.8 µM. In addition, in data set [2], the “SI (selectivity index)” value is reported as 85 and 0.092 µM corresponded to half-maximal inhibition (IC50). This molecule returned a chromatographic logD in data set [3] of 4.53.
`NS(=O)(=O)c1ccc(-c2c(-c3ccccc3)c3cccc4ccn2c43)cc1` [2a, 1-Phenyl-2-[4-(sulfamoyl)phenyl]pyrrolo[3,2,1-hi]indole]: the melting point fell in the range of 218 to 220 °C. This molecule displayed an IC50 in data set [1] of over 100 µM. In data set [2], the “SI (selectivity index)” value was over 1887 and the IC50 amounted to 0.053 µM. The molecule also showed a chromatographic logD in data set [3] of 4.59.
On the same counts, the results for `Cc1ccc(-c2c(-c3ccc(S(N)(=O)=O)cc3)n3ccc4cccc2c43)cc1` [2b, 2-[4-(Sulfamoyl)phenyl]-1-(p-tolyl)pyrrolo[3,2,1-hi]indole] are 233 to 235 °C, over 100 µM, over 1087, 0.092 µM and 4.73.
For `NS(=O)(=O)c1ccc(-c2c(-c3ccc(Cl)cc3)c3cccc4ccn2c43)cc1` [2c, 1-(4-Chlorophenyl)-2-[4-(sulfamoyl)phenyl]pyrrolo[3,2,1-hi]indole], the melting point lay in the range of 270 to 273 °C. The molecule also showed an IC50 in data set [1] of over 100 µM. Further, in data set [2], the “SI (selectivity index)” value is on record as over 1136 and the IC50 was 0.088 µM. For the same molecule, the chromatographic logD in data set [3] amounted to 4.89.
With `CCC(=O)NS(=O)(=O)c1ccc(-c2c(-c3ccccc3)c3cccc4c3n2CC4)cc1` [3a, N-{[4-(5-phenyl-1,2-dihydropyrrolo[3,2,1-hi]indol-4-yl)phenyl]sulfonyl}propionamide], the IC50 in data set [1] and in data set [2] was over 100 µM each time. This molecule registered a chromatographic logD in data set [3] of 2.05.
For `CCC(=O)NS(=O)(=O)c1ccc(-c2c(-c3ccc(C)cc3)c3cccc4c3n2CC4)cc1` [3b, N-({4-[5-(p-tolyl)-1,2-dihydropyrrolo[3,2,1-hi]indol-4-yl]phenyl}sulfonyl)propionamide], the IC50 in data set [1] and in data set [2] was over 100 µM in each case. In data set [3], the chromatographic logD was 2.31.
For the molecule `CCC(=O)NS(=O)(=O)c1ccc(-c2c(-c3ccc(Cl)cc3)c3cccc4c3n2CC4)cc1` [3c, N-({4-[5-(4-chlorophenyl)-1,2-dihydropyrrolo[3,2,1-hi]indol-4-yl]phenyl}sulfonyl)propionamide], the IC50 in data set [1] is over 100 µM; in data set [2] it was 26.4 µM. Besides, the “SI (selectivity index)” value in data set [2] is on record as over 3.8. The chromatographic logD in data set [3] worked out at 2.49.
For `CCC(=O)NS(=O)(=O)c1ccc(-c2c(-c3ccc(F)cc3)c3cccc4c3n2CC4)cc1` [3d, N-({4-[5-(4-fluorophenyl)-1,2-dihydropyrrolo[3,2,1-hi]indol-4-yl]phenyl}sulfonyl)propionamide], the half-inhibitory concentration (IC50) in data set [1] and in data set [2] was over 100 µM in each case. This molecule had a chromatographic logD in data set [3] of 2.2.
As for `CCC(=O)NS(=O)(=O)c1ccc(-c2c(-c3ccccc3)c3cccc4ccn2c43)cc1` [4a, N-{[4-(1-phenylpyrrolo[3,2,1-hi]indol-2-yl)phenyl]sulfonyl}propionamide], the chromatographic logD in data set [3] came out at 2.24.
Molecule `CCC(=O)NS(=O)(=O)c1ccc(-c2c(-c3ccc(C)cc3)c3cccc4ccn2c43)cc1` [4b, N-({4-[1-(p-tolyl)pyrrolo[3,2,1-hi]indol-2-yl]phenyl}sulfonyl)propionamide] came in with an IC50 in data set [1] of over 100 µM. In addition, in data set [2], the “SI (selectivity index)” value is on record as over 2.9 and the half-inhibitory concentration (IC50) is 33.9 µM. Moreover, the chromatographic logD in data set [3] is 2.48.
The matching figures for `CCC(=O)NS(=O)(=O)c1ccc(-c2c(-c3ccc(Cl)cc3)c3cccc4ccn2c43)cc1` [4c, N-({4-[1-(4-chlorophenyl)pyrrolo[3,2,1-hi]indol-2-yl]phenyl}sulfonyl)propionamide]: over 100 µM, over 9.1, 11 µM and 2.6.
On the same counts, the results for `CCC(=O)NS(=O)(=O)c1ccc(-c2c(-c3ccc(F)cc3)c3cccc4ccn2c43)cc1` [4d, N-({4-[1-(4-fluorophenyl)pyrrolo[3,2,1-hi]indol-2-yl]phenyl}sulfonyl)propionamide] are over 100 µM, over 3.8, 26.5 µM and 2.3.

The values above are taken from paper PMC6832141, “Synthesis and Cyclooxygenase Inhibition of Sulfonamide-Substituted (Dihydro)Pyrrolo[3,2,1-hi]indoles and Their Potential Prodrugs” (Molecules, 2019).
